The values that follow come from PMC2864270 (PLoS Neglected Tropical Diseases, 2010).

Read-outs that look alike come from different tables or passages of the source.

One assay relates to L. major promastigote. The assay can be described thus: Primary screening resazurin viability assay, L. major promastigotes. It is filed as cell-based, Leishmania major. Particulars: for Active compound selection in the 4,000-compound library screen: cut-off 70% proliferation inhibition at the lowest compound concentration (0.2–0.02 µM), duplicate, data not shown; for EC50: Leishmania major, Fig. 1B, HTS format, promastigotes, read-out: EC50 of reference compound, L. major (black line). Here is the method: (§1) L. major MHOM/IL/81/FRIEDLIN and L. donovani MHOM/ET/67/HU3 promastigotes were cultivated at 28°C in axenic M199 culture medium (Welgene, S. Korea) supplemented with 10% heat-inactivated fetal bovine serum (FBS) (Gibco, United States) and 1% streptomycin/penicillin (Gibco, United States).
(§2) After compound addition to the assay plate (Evotec™ 384-well microplate, Germany), 20,000 L. major promastigote parasites from an exponential phase culture (∼10^7 parasites/mL) were diluted in M199, seeded in 50 µL per well using FlexDrop™ and incubated at 28°C for 28 hours, followed by the addition of 5 mM resazurin sodium salt (Sigma R7017, United States) and further incubation for 20 hours at 28°C. After a 48-hour exposure to compounds, the reference drug (EtBr) or control (1% DMSO), the parasites were fixed with 2% paraformaldehyde (PFA) and plates were read in Victor3™ (Perkin Elmer) at 530 nm (excitation) and 590 nm (emission). This fixation step is not necessary for resazurin readout, but allows flexibility in the automation schedule and increases assay robustness by decreasing metabolic variability between populations across wells and plates.
The effect of compounds on Leishmania viability was assessed by fluorometric measurement of resazurin reduction. […] Reference compounds for antileishmanial activity (EtBr, amphotericin B, miltefosine and paromomycin) were tested (Fig. 1B) as a step of the validation process. […] Assay validation was performed on three separate days using 33 microplates (384 wells/plate) containing only controls. […] After assay validation, we screened a 4,000-compound library containing a number of compounds with known pharmacological properties. […] This assay was done in duplicate and results of each concentration assay are represented as individual graphs in Fig. 1D.
(Resazurin is reduced to fluorescent resorufin, in cell work by metabolically active cells.)

The subject of another assay is L. donovani promastigote. The assay can be described thus: Resazurin viability assay, L. donovani promastigotes. It is filed as cell-based. As to conditions: Leishmania donovani, read-out: EC50 of reference compound, L. donovani (grey dashed line). Here is the method: as §1
as §2, with “plates. Z-factor, calculated as 1−(3×σp+3×σn)/(|μp−μn|), where μp, σp, μn and σn are the means (μ) and standard deviations (σ) of both the positive (p) and negative (n) controls, and other parameters, including DRC plates for verification of the reference drug EC50 (accepted if within the range of 3× higher or lower than a defined value from the literature), coefficient of variation not higher than 10% in the controls and edge effect evaluation, were used for screening validation and hits selection.” for “plates.”
Infection of human macrophage cells in vitro with Leishmania has been previously described as a suitable model for screening and was adopted for our purpose. The 124 active compounds selected from the secondary assay were tested in 10-point dose response with 2-fold serial dilutions starting from 20 µM against promastigotes and intracellular amastigotes of L. major and L. donovani infecting macrophages. The average Z-factor calculated per plate based on the reference drug (amphotericin B) and carrier (1% DMSO) was 0.62 for L. major infection and 0.59 for L. donovani infection, and minimum accepted Z-factor for the analysis was 0.5.

The test system of assay [1] is L. donovani intracellular amastigotes. As to the kind of experiment: Intracellular amastigotes assay, L. donovani infecting THP-1 macrophages (image-based infection ratio). Particulars: Leishmania donovani, 96 h, intracellular amastigotes infecting THP-1 macrophages, 4 days incubation, read-out: L. donovani EC50 amastigote. The assay is classed as cell-based. How it is done: (§3) THP-1 cells were cultivated in suspension at a density of 10^5 to 10^6 cells/mL in RPMI (Gibco 1640, United States) medium supplemented with 10% heat-inactivated FBS and 1% streptomycin/penicillin at 37°C and 5% CO2. The differentiation of THP-1 into macrophages was induced by incubation of the cells for 48 hours with phorbol 12-myristate 13-acetate (PMA) at 50 ng/ml. For infection, late-stage L. major or L. donovani rich in metacyclic promastigotes was added to differentiated THP-1 cells (ratio of 50 parasites to 1 host cell) in Evotec™ 384-well microplates using a FlexDrop™ (Perkin Elmer) to dispense 50 µL/well. Compounds were added 24 hours after infection and microplates were incubated at 37°C and 5% CO2 for 4 days. Amphotericin B as the reference compound (positive control) at 10 µM as the EC100 and 1% DMSO (negative control) were used in all the plates for data normalization (see bellow). […] Microplates were read in an Opera confocal microscope (Perkin Elmer), enabling the determination of the infection ratio of the parasites by image analysis. […] The macrophage nuclei and internalized parasites were identified and counted if localized in the foreground previously selected (Figure S1). With this technique, extracellular parasites were not considered in the calculations, and the infection ratio was determined by the number of infected cells divided by the total number of cells after normalization based on the controls. The average infection ratios from the positive and negative controls were normalized to 0% and 100% infection, and the infection ratio read from each compound activity was proportionally distributed within this range. […]
(§4) Infection of human macrophage cells in vitro with Leishmania has been previously described as a suitable model for screening and was adopted for our purpose. […] The average Z-factor calculated per plate based on the reference drug (amphotericin B) and carrier (1% DMSO) was 0.62 for L. major infection and 0.59 for L. donovani infection, and minimum accepted Z-factor for the analysis was 0.5.

Assay [2] relates to L. major intracellular amastigotes. As to the kind of experiment: Intracellular amastigotes assay, L. major infecting THP-1 macrophages (image-based infection ratio). It is filed as cell-based. As to conditions: Leishmania major, 96 h, intracellular amastigotes infecting THP-1 macrophages, 4 days incubation, read-out: L. major EC50 amastigote. How it is done:
as §3, §4

Setting [3] is: Fig. 1B, HTS format, promastigotes.

Regarding `C=C1C(=O)O[C@H]2[C@H]1CC/C(C)=C/CC[C@@]1(C)O[C@@H]21` [parthenolide], the “Active compound selection in the 4,000-compound library screen” value (“Active compound selection” below) in the assay on L. major promastigote is on record as “active”. Broadly, the EC50 is the concentration at which the effect is half-maximal. Take `C[C@@H]1[C@H](O)[C@@H](C)/C=C/C=C/C=C/C=C/C=C/C=C/C=C/[C@H](O[C@@H]2O[C@H](C)[C@@H](O)[C@H](N)[C@@H]2O)C[C@@H]2O[C@](O)(C[C@@H](O)C[C@@H](O)[C@H](O)CC[C@@H](O)C[C@@H](O)CC(=O)O[C@H]1C)C[C@H](O)[C@H]2C(=O)O` [amphotericin B, reference compound]: the EC50 in the assay on L. donovani promastigote (setting [3]) was 1300 nM; in assay [1], 820 nM; in the assay on L. major promastigote, 3.9 µM; in assay [2] it was 1060 nM. With `NC[C@@H]1O[C@H](O[C@H]2[C@@H](O)[C@H](O[C@@H]3[C@@H](O)[C@H](N)C[C@H](N)[C@H]3O[C@H]3O[C@H](CO)[C@@H](O)[C@H](O)[C@H]3N)O[C@@H]2CO)[C@H](N)[C@@H](O)[C@@H]1O` [paromomycin], the EC50 worked out at 13000 nM in the assay on L. donovani promastigote (setting [3]) and 62.5 µM with L. major promastigote. On to `O=C1OCCN1/N=C/c1ccc([N+](=O)[O-])o1` [furazolidone], for which, in the assay on L. major promastigote, the “Active compound selection” value was “active”. The same measure, in the same setting: then `COc1ccc2cc3[n+](cc2c1OC)CCc1cc2c(cc1-3)OCO2` [berberine chloride], with “active”.

Regarding `NC(=O)N/N=C/c1ccc([N+](=O)[O-])o1` [nitrofural], the “Active compound selection” value in the assay with L. major promastigote was “active”. Regarding `N=C(N)c1ccc(OCCCCCOc2ccc(C(=N)N)cc2)cc1` [pentamidine isethionate], the “Active compound selection” value with L. major promastigote is listed as “active”.

`CC1CS(=O)(=O)CCN1/N=C/c1ccc([N+](=O)[O-])o1` (centres unmarked) [nifurtimox]: the “Active compound selection” value in the assay with L. major promastigote is given as “active”. In the case of `COc1ccc(C[C@H]2NC[C@H](O)[C@H]2OC(C)=O)cc1` [anisomycin], in the assay on L. major promastigote, the “Active compound selection” value is listed as “active”. `CC[n+]1c(-c2ccccc2)c2cc(N)ccc2c2ccc(N)cc21` [EtBr, Ethidium bromide]: the EC50 with L. donovani promastigote turned out to be 5 nM; in the assay with L. major promastigote, 0.014 µM. Take `CCCCCCCCCCCCCCCCOP(=O)([O-])OCC[N+](C)(C)C` [miltefosine]: the EC50 was found to be 2700 nM in the assay with L. donovani promastigote (setting [3]) and 4.7 µM in the assay on L. major promastigote.
